The results in this text go back to patent EP0438311A2, “Di- and tripeptide renin inhibitors” (MERCK & CO. INC., priority 1990, dated 1991).

The experiment addresses T1, human plasma renin (Homo sapiens, UniProt P00797).
T1 construct: from tissue; host or cells: human plasma
T1 sequence (P00797 67-406): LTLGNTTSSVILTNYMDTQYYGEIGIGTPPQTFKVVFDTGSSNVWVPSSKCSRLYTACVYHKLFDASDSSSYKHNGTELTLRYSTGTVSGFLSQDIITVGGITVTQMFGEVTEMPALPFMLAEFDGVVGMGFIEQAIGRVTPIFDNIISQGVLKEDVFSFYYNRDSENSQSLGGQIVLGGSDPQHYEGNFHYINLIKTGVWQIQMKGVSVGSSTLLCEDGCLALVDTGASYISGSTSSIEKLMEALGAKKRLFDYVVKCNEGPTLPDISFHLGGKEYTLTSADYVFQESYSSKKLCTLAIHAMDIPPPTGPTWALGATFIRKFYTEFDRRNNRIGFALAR
In words: Inhibition of human plasma renin, in vitro method of Boger et al. The conditions noted are these: J. Med. Chem. (1985) 28, 1779, read-out: IC₅₀. The class given is biochemical. Here is the method: Inhibition of human plasma renin was assayed using the in vitro method described by Boger, et. al., J. Med. Chem. (1985) 28, 1779. IC₅₀-1.3 nM.
In the case of `C=CC[C@H]1COC[C@@H]2C[C@@H]([C@H](O)[C@H](CC3CCCCC3)NC(=O)[C@H](Cc3c[nH]cn3)NC(=O)[C@H](Cc3ccccc3)NC(=O)OC(C)(C)C)C(=O)N21` [Example 3A, Boc-Phe-His-(ACHP)-5(S)-Allyl-7-Oxa-9(S)-Indolizidin-3-One-2(S)-yl], the IC50 amounted to 1.3 nM.

Take `C=C(C)C[C@H]1COC[C@@H]2C[C@@H]([C@H](O)[C@H](CC3CCCCC3)NC(=O)[C@H](Cc3cnc[nH]3)NC(=O)[C@H](Cc3ccccc3)NC(=O)OC(C)(C)C)C(=O)N12` [Example 3B, Boc-Phe-His-(ACHP)-5(S)-(2-Methallyl)-7-Oxa-9(S)-Indolizidin-3-One-2(S)-yl]: the IC50 was 0.97 nM.

On to `CC(C)C[C@H]1COC[C@@H]2C[C@@H]([C@H](O)[C@H](CC3CCCCC3)NC(=O)[C@H](Cc3cnc[nH]3)NC(=O)[C@H](Cc3ccccc3)NC(=O)OC(C)(C)C)C(=O)N12` [Example 3C, Boc-Phe-His-(ACHP)-5(S)-(2-Methylpropyl)-7-Oxa-9(S)-Indolizidin-3-One-2(S)-yl], for which the IC50 was 2 nM.

With `CC(C)(C)OC(=O)N[C@@H](Cc1ccccc1)C(=O)N[C@@H](Cc1cnc[nH]1)C(=O)N[C@@H](CC1CCCCC1)[C@@H](O)[C@@H]1C[C@H]2COC[C@H](C3CCCC3)N2C1=O` [Example 3D, Boc-Phe-His-(ACHP)-5(S)-Cyclopentyl-7-Oxa-9(S)-Indolizidin-3-One-2(S)-yl], the IC50 is 1 nM.

With `CCC[C@H]1COC[C@@H]2C[C@@H]([C@H](O)[C@H](CC3CCCCC3)NC(=O)[C@H](Cc3cnc[nH]3)NC(=O)[C@H](Cc3ccccc3)NC(=O)OC(C)(C)C)C(=O)N21` [Example 3E, Boc-Phe-His-(ACHP)-5(S)-Propyl-7-Oxa-9(S)-Indolizidin-3-One-2(S)-yl], the IC50 was 1 nM.

On to “Boc-Phe-His-(ACHP)-6(S)-Methyl-9(S)-Indolizidin-3-One-2(S)-yl [Example 3XX]”, for which the IC50 worked out at 6.8 nM.
